{"source": "patent US8476272B2", "about": "“Pharmaceutical composition for treatment of type 2 diabetes” (Jiangsu Hengrui Medicine Co., Ltd., priority 2010, dated 2013)", "key": {"[1]": {"tested_on": "genetic fatty Wistar rats with diabetes", "assay": "14-day administration to genetic fatty Wistar rats with diabetes: plasma glucose and hemoglobin", "type": "in vivo", "details": "14 days, compound A or MK-0431 10 mg/kg/day p.o., metformin 100 mg/kg/day, mean ± SD, n=5-6; for hemoglobin: hemoglobin Al", "experimental": "14-19 week-old male Wistar rats were divided into 5 groups, 5-6 each group. […] Blood was collected from caudal vein. The plasma glucose and hemoglobin Al were determined respectively with a commercial kit (NC-ROPET, Nippon Chemiphar CO.) by enzyme method."}, "[2]": {"tested_on": "genetic fatty Wistar rats with diabetes", "assay": "Oral glucose loading test in genetic fatty Wistar rats with diabetes after 7 days of administration", "type": "in vivo", "details": "phosphates 30 mg/kg/day p.o., metformin 100 mg/kg/day, mean ± SD, n=5", "experimental": "13-14 week-old male Wistar rats were divided into 5 groups, 5 each group. […] Oral glucosieloading test was conducted immediately after fasting overnight (2 g glucose/kg/5 ml, p.o.). Blood was collected from caudal vein before or 120 minutes and 240 minutes after the test, and plasma glucose was analyzed with enzyme method (Encore Chemical System; Baker)."}, "[3]": {"details": "0 min (before glucose load 2 g/kg p.o.)"}, "[4]": {"details": "120 min after glucose load 2 g/kg p.o."}, "[5]": {"details": "240 min after glucose load 2 g/kg p.o."}}}
{"smiles": "COC(=O)c1nc(C(F)(F)F)n2c1CN(C(=O)C[C@H](N)Cc1cc(F)c(F)cc1F)CC2", "note": "[Compound A, (R)-7-[3-amino-4-(2,4,5-trifluoro-phenyl)-butyryl]-3-trifluoromethyl-5,6,7,8-tetrahydro-imidazo[1,5-a]pyrazine-1-carboxylic acid methyl ester]", "values": [{"measurement": "plasma glucose", "setting": "[1]", "result": "214 ± 50"}, {"measurement": "hemoglobin", "setting": "[1]", "result": "5.3 ± 0.3"}]}
{"smiles": "CN(C)C(=N)N=C(N)N", "note": "[metformin]", "values": [{"measurement": "plasma glucose", "setting": "[2]; [3]", "result": "119 ± 11", "unit": "mg/dL"}, {"measurement": "plasma glucose", "setting": "[2]; [4]", "result": "221 ± 62", "unit": "mg/dL"}, {"measurement": "plasma glucose", "setting": "[2]; [5]", "result": "107 ± 21", "unit": "mg/dL"}, {"measurement": "plasma glucose", "setting": "[1]", "result": "327 ± 46"}, {"measurement": "hemoglobin", "setting": "[1]", "result": "6.1 ± 0.6"}]}
{"smiles": "COC(=O)c1nc(C(F)(F)F)n2c1CN(C(=O)C[C@H](N)Cc1cc(F)c(F)cc1F)CC2", "note": "[phosphate of compound A]", "values": [{"measurement": "plasma glucose", "setting": "[2]; [3]", "result": "103 ± 11", "unit": "mg/dL"}, {"measurement": "plasma glucose", "setting": "[2]; [4]", "result": "137 ± 17", "unit": "mg/dL"}, {"measurement": "plasma glucose", "setting": "[2]; [5]", "result": "102 ± 9", "unit": "mg/dL"}]}
